In patent US9353089B2, “Compositions and methods for the treatment of malaria” (Saint Louis University, priority 2013, dated 2016):
Where two headings read alike, the source gives them in different places.

How the values were obtained:
[1] = test system: Plasmodium falciparum 3D7 (CQ-sensitive); assay: In vitro antimalarial assay (malaria SYBR Green I-based fluorescence, MSF), 3D7; format: cell-based
Procedure: Stock solutions of each test drug were prepared in DMSO at a concentration of 20 mM. The drug solutions were serially diluted with culture medium and distributed to asynchronous parasite cultures on 96-well plates in quadruplicate in a total volume of 100 μL to achieve 0.5% parasitemia with a 2% hematocrit in a total volume of 100 pt. […] After incubation, 100 μL of lysis buffer with 0.2 μL/mL SYBR Green I was added to each well.
Antimalarial potency of compounds was determined by this technique for both Plasmodium falciparum 3D7 (CQ-sensitive) and Dd2 (multi-drug resistant) strains.

[2] = biological target: Plasmepsin-2 (PM-2; Plm II) (Plasmodium falciparum (isolate HB3), UniProt P46925); assay: Plasmepsin-2 enzyme inhibition assay; format: biochemical
Chain of Plasmepsin-2 (PM-2; Plm II) (P46925 125-453 limits assumed): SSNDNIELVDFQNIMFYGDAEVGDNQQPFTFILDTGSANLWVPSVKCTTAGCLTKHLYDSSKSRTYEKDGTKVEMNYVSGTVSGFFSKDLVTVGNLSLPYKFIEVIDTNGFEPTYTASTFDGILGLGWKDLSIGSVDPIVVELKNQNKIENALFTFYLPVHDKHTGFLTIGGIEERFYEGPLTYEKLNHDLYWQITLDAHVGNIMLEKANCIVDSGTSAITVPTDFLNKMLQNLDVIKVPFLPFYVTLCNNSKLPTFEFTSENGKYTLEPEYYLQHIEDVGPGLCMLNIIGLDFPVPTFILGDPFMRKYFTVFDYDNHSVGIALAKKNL
Procedure: Plasmepsin-2 (PM-2; Plm II) and Plasmepsin (PM-4; Plm IV) expression and purification was performed following the published protocols (Istvan E S and Goldberg D E, 2005). The final purified protein was activated by diluting the protein to 0.3 mg/mL in activating buffer (0.1 M citrate pH 4.5, 0.1% Tween-20, 50 mM dithiothreitol) and incubated at room temperature for 40 min, then the activated enzyme was diluted in assay buffer (50 mM sodium acetate pH 4.7, 0.01% Tween-20). The enzymatic inhibition reaction was performed in 384 well plates with a total volume of 20 μl. 10 μl of diluted PM-2 or PM-4 enzyme was added to the 384-well plate except blank wells (blank wells add 10 μL of assay buffer) and 20 nL of serials of diluted 1000× compounds were added to the wells with 520 Echo® Liquid Handling System (Labcyte Inc.). 10 μL PM-2 peptide substrate (AnaSpec, Cat#, 62050) with assay buffer was then added to final concentration of 20 μM to start the reaction. After incubation the reaction at room temperature for 60 min, the fluorescence intensity at Ex/Em=360 nm/535 nm was measured using EnVision multilabel plate reader (Perkin-Elmer). The IC50 values were obtained using Graph Pad Prism 4 and are reported in Tables 8 and 9 below as PM-2 IC50 values.

[3] = 3D7, Table 13, read-out: 3D7 IC50
[4] = 3D7, Table 10, read-out: Pf3D7 IC50
[5] = 3D7, Table 11, read-out: Pf 3D7 IC50
[6] = 3D7, Table 12, read-out: 3D7 IC50

| Compound | IC50 [1, 3] [nM] | IC50 ([2]; Table 13, read-out: PM-2 IC50) [nM] | IC50 [1, 5] [nM] | also measured |
| --- | --- | --- | --- | --- |
| COc1ccc(C2(c3ccc(OC)cc3)NC(=N)N(Cc3ccncc3)C2=O)cc1 [Example 203, 2-imino-5,5-bis(4-methoxyphenyl)-3-(pyridin-4-ylmethyl)-imidazolidin-4-one] | 1130 | 14.9 | – | – |
| COc1ccc(C2(c3ccc(OC)cc3)NC(=N)N(C3CCC3)C2=O)cc1 [Example 204, 3-cyclobutyl-2-imino-5,5-bis(4-methoxyphenyl)-imidazolidin-4-one] | 722 | 67.4 | – | IC50 [1, 4]: 722 nM |
| N=C1NC(c2ccccc2)(c2ccccc2)C(=O)N1Cc1ccccc1 [Example 102, 3-benzyl-2-imino-5,5-diphenyl-imidazolidin-4-one] | 8290 | 33.1 | – | IC50 [1, 4]: 8290 nM |
| COc1ccc(C2(c3cccc(-c4ccncc4)c3)NC(=N)N(C3CCCCC3)C2=O)cc1 (stereo not shown) [Example 172, 3-cyclohexyl-2-imino-5-(4-methoxyphenyl)-5-[3-(pyridin-4-yl)phenyl]-imidazolidin-4-one] | 533 | 9.64 | – | – |
| COc1ccc(C2(c3ccccc3)NC(=N)N(C3CCCCC3)C2=O)cc1 (stereo not shown) [Example 141, 3-cyclohexyl-2-imino-5-(4-methoxyphenyl)-5-phenylimidazolidin-4-one] | 533 | 10.6 | 533 | – |
| COc1cccc(C2(c3cccc(OC)c3)NC(=N)N(Cc3ccccc3)C2=O)c1 [Example 105, 3-benzyl-2-imino-5,5-bis(3-methoxy-phenyl)imidazolidin-4-one] | 6310 | 57.4 | – | – |
| CCOc1ccc(C2(c3ccc(OCC)cc3)NC(=N)N(C3CCCCC3)C2=O)cc1 [Example 157, 3-cyclohexyl-5,5-bis(4-ethoxyphenyl)-2-iminoimidazolidin-4-one] | 466 | 6.87 | 466 | – |
| COc1ccc(C2(c3cccc(-c4ccccn4)c3)NC(=N)N(C3CCCCC3)C2=O)cc1 (stereo not shown) [Example 210, 3-cyclohexyl-2-imino-5-(4-methoxyphenyl)-5-[3-(pyridin-2-yl)-phenyl]imidazolidin-4-one] | 1810 | 5.47 | 1810 | – |
| COc1ccc(C2(c3ccc(OC)cc3)NC(=N)N(CC3CCCO3)C2=O)cc1 (stereo not shown) [Example 274, 2-imino-5,5-bis(4-methoxyphenyl)-3-(oxolan-2-ylmethyl)-imidazolidin-4-one] | 633 | 11.4 | – | – |
| N=C1NC(c2ccc(OC(F)(F)F)cc2)(c2ccc(OC(F)(F)F)cc2)C(=O)N1C1CCCCC1 [Example 201, 3-cyclohexyl-2-imino-5,5-bis[4-(trifluoromethoxy)-phenyl]imidazolidin-4-one] | 2200 | 55.1 | 2200 | – |
| COc1ccc(C2(c3ccc(OC)cc3)NC(=N)N(Cc3ccccc3C(F)(F)F)C2=O)cc1 [Example 304, 2-imino-5,5-bis(4-methoxyphenyl)-3-{[2-(trifluoromethyl)-phenyl]methyl}-imidazolidin-4-one] | 1340 | 1.88 | – | – |
| N=C1NC(c2ccc(Br)cc2)(c2ccc(Br)cc2)C(=O)N1C1CCCCC1 [Example 154, 5,5-bis(4-bromophenyl)-3-cyclohexyl-2-iminoimidazolidin-4-one] | 1480 | 9.9 | – | – |
| COc1cccc(-c2cccc(C3(c4ccccc4)NC(=N)N(C)C3=O)c2)c1 (stereo not shown) [Example 327, 2-imino-5-[3-(3-methoxyphenyl)phenyl]-3-methyl-5-phenyl-imidazolidin-4-one] | – | – | – | IC50 [1, 6]: 4970 nM; IC50 ([2]; Table 12, read-out: PM-2 IC50): 240 nM |
| COc1ccc(C2(c3ccc(OC)c(OC)c3)NC(=N)N(C3CCCCC3)C2=O)cc1OC [Example 173, 3-cyclohexyl-5,5-bis(3,4-dimethoxy-phenyl)-2-imino-imidazolidin-4-one] | 614 | 54.7 | – | – |
| COc1ccc(C2(c3ccc(OC)cc3)NC(=S)N(C3CCCCC3)C2=O)cc1 | – | – | – | IC50 ([1]; 3D7, Table 8, read-out: Pf 3D7 IC50): > 5000 nM; IC50 ([2]; Table 8, read-out: PM-II IC50): > 10000 nM |
| COc1ccc(C2(c3ccc(OC)cc3)NC(=N)N(Cc3ccccc3C)C2=O)cc1 [Example 303, 2-imino-5,5-bis(4-methoxyphenyl)-3-[(2-methylphenyl)-methyl]imidazolidin-4-one] | 1010 | 3.1 | – | – |
| COc1cccc(C2(c3cccc(OC)c3)NC(=N)N(C3CC3)C2=O)c1 [Example 167, 3-cyclopropyl-2-imino-5,5-bis(3-methoxyphenyl)-imidazolidin-4-one] | 9320 | 2830 | – | – |
| COc1ccc(C2(c3ccc(OC)cc3)NC(=N)N(C3CCCC3)C2=O)cc1 [Example 159, 3-cyclopentyl-2-imino-5,5-bis(4-methoxyphenyl)-imidazolidin-4-one] | 611 | 25.1 | – | IC50 [1, 4]: 611 nM |
| N=C1NC(c2ccccc2)(c2cccc(-c3ccccc3)c2)C(=O)N1C1CCCCC1 (stereo not shown) [Example 212, 3-cyclohexyl-2-imino-5-phenyl-5-(3-phenylphenyl)-imidazolidin-4-one] | 1710 | 12.3 | – | – |
| COc1ccc(C2(c3ccc(OC)cc3)NC(=N)N(Cc3cccnc3)C2=O)cc1 [Example 219, 2-imino-5,5-bis(4-methoxyphenyl)-3-(pyridin-3-ylmethyl)-imidazolidin-4-one] | 582 | 9.62 | – | – |
| COc1ccc(C2(c3cccc(-c4ccccc4)c3)NC(=N)N(C3CCCCC3)C2=O)cc1 (stereo not shown) [Example 177, 3-cyclohexyl-2-imino-5-(4-methoxyphenyl)-5-(3-phenylphenyl)-imidazolidin-4-one] | 1490 | 11.7 | 1490 | – |
| N=C1NC(c2ccccc2Cl)(c2ccccc2Cl)C(=O)N1C1CCCCC1 [Example 202, 5,5-bis(2-chlorophenyl)-3-cyclohexyl-2-iminoimidazolidin-4-one] | 349 | 6750 | – | – |
| COc1cccc(-c2cccc(C3(C4CC4)NC(=N)N(C)C3=O)c2)c1 (stereo not shown) [Example 330, 5-cyclopropyl-2-imino-5-[3-(3-methoxyphenyl)-phenyl]-3-methyl-imidazolidin-4-one] | – | – | – | IC50 [1, 6]: ~2400 nM; IC50 ([2]; Table 12, read-out: PM-2 IC50): 751 nM |
| COc1cccc(C2(c3cccc(-c4cccnc4)c3)NC(=N)N(C3CCCCC3)C2=O)c1 (stereo not shown) [Example 214, 3-cyclohexyl-2-imino-5-(3-methoxyphenyl)-5-[3-(pyridin-3-yl)phenyl]-imidazolidin-4-one] | 787 | 12 | 787 | – |
| COc1ccc(C2(c3ccc(OC)cc3)NC(=N)N(Cc3cccc(C)c3C)C2=O)cc1 [Example 277, 3-[(2,3-dimethyl-phenyl)methyl]-2-imino-5,5-bis(4-methoxyphenyl)-imidazolidin-4-one] | 1570 | 4.39 | – | – |
| COc1ccc(C2(c3ccc(OC)cc3)NC(=N)N(Cc3ccccc3)C2=O)cc1 [Example 162, 3-benzyl-2-imino-5,5-bis(4-methoxyphenyl)-imidazolidin-4-one] | 855 | 7.3 | – | IC50 [1, 4]: 855 nM |
| COc1cccc(C2(c3ccccc3)NC(=N)N(C3CCCCC3)C2=O)c1 (stereo not shown) [Example 153, 3-cyclohexyl-2-imino-5-(3-methoxyphenyl)-5-phenylimidazolidin-4-one] | 917 | 24.9 | 917 | – |
| COc1ccc(C2(c3ccc(OC)cc3)NC(=N)N(Cc3c(C)cccc3C)C2=O)cc1 [Example 278, 3-[(2,6-dimethyl-phenyl)methyl]-2-imino-5,5-bis(4-methoxyphenyl)-imidazolidin-4-one] | 1040 | 2.76 | – | – |
| N=C1NC(c2ccc(Cl)cc2)(c2ccc(Cl)cc2)C(=O)N1C1CCCCC1 [Example 155, 5,5-bis(4-chlorophenyl)-3-cyclohexyl-2-iminoimidazolidin-4-one] | 1070 | 6 | 1070 | – |
| N=C1NC(c2ccccc2)(c2cccc(OCc3ccccc3)c2)C(=O)N1C1CCCCC1 (stereo not shown) [Example 228, 5-[3-(benzyloxy)-phenyl]-3-cyclohexyl-2-imino-5-phenylimidazolidin-4-one] | 641 | 2.89 | 641 | – |
